Results on 22 compounds are retold here after US9249132B2, “Substituted bicyclic aromatic compounds as S-nitrosoglutathione reductase inhibitors” (Nivalis Therapeutics, Inc., priority 2010, dated 2016).

pIC50: −log10 of the molar value.

T1 sequence (P11766 whole entry): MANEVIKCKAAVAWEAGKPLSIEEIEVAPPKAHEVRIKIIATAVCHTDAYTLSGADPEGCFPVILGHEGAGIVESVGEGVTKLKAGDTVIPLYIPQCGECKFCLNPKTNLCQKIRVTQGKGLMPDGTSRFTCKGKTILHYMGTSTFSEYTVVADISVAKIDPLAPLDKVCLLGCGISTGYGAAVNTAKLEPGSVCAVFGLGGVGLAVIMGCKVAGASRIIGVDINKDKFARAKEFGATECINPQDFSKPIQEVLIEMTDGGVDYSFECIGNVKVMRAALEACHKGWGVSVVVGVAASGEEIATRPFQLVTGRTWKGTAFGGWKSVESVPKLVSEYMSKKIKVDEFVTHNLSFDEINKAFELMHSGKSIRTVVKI

One data set concerns the target T1, GSNOR (Homo sapiens, UniProt P11766).
T1 construct: made in house; host or cells: E. coli
In words: GSNOR assay (inhibition of GSNOR activity, change in 340 nm absorbance). Format: biochemical. The settings on record: 100 mM NaPO4 pH 7.4, 0.240 mM GSNO, 0.300 mM NADH, 0.5 μg/mL GSNO Reductase, 1% DMSO, 25° C. As to the method:
Various compounds were tested in vitro for their ability to inhibit GSNOR activity.
GSNOR expression and purification is described in Biochemistry 2000, 39, 10720-10729.
GSNOR Fermentation: Pre-cultures were grown from stabs of a GSNOR glycerol stock in 2XYT media containing 100 ug/ml ampicillin after an overnight incubation at 37° C. Cells were then added to fresh 2XYT (4 L) containing ampicillin and grown to an OD (A600) of 0.6-0.9 at 37° C. before induction. GSNOR expression was induced with 0.1% arabinose in an overnight incubation at 20° C.
GSNOR Purification: E. coli cell paste was lysed by nitrogen cavitation and the clarified lysate purified by Ni affinity chromatography on an AKTA FPLC (Amersham Pharmacia). The column was eluted in 20 mM Tris pH 8.0/250 mM NaCl with a 0-500 mM imidazole gradient. Eluted GSNOR fractions containing the Smt-GSNOR fusion were digested overnight with Ulp-1 at 4° C. to remove the affinity tag then re-run on the Ni column under the same conditions. GSNOR was recovered in the flowthrough fraction and for crystallography is further purified by Q-Sepharose and Heparin flowthrough chromatography in 20 mM Tris pH 8.0, 1 mM DTT, 10 uM ZnSO4.
GSNOR Assay: GSNO and enzyme/NADH Solutions are made up fresh each day. The solutions are filtered and allowed to warm to room temperature. GSNO solution: 100 mM NaPO4 (pH 7.4), 0.480 mM GSNO. 396 μL of GSNO Solution is added to a cuvette followed by 8 μL of test compound in DMSO (or DMSO only for full reaction control) and mixed with the pipette tip. Compounds to be tested are made up at a stock concentration of 10 mM in 100% DMSO. 2 fold serial dilutions are done in 100% DMSO. 8 μL of each dilution are added to an assay so that the final concentration of DMSO in the assay is 1%. The concentrations of compounds tested range from 100 to 0.003 μM. Enzyme/NADH solution: 100 mM NaPO4 (pH 7.4), 0.600 mM NADH, 1.0 μg/mL GSNO Reductase. 396 μL of the Enzyme/NADH solution is added to the cuvette to start the reaction. The cuvette is placed in the Cary 3E UV/Visible Spectrophotometer and the change in 340 nm absorbance/min at 25° C. is recorded for 3 minutes. The assays are done in triplicate for each compound concentration. IC50's for each compound are calculated using the standard curve analysis in the Enzyme Kinetics Module of SigmaPlot.
Final assay conditions: 100 mM NaPO4, pH 7.4, 0.240 mM GSNO, 0.300 mM NADH, 0.5 μg/mL GSNO Reductase, and 1% DMSO. Final volume: 800 μL/cuvette.
As to `COc1cc(C(=O)O)ccc1-c1ccc2cc(O)ccc2c1` [Example 3, 4-(6-hydroxynaphthalen-2-yl)-3-methoxybenzoic acid], the pIC50 was over 7.00.
As to `Cc1cc2cc(O)ccc2cc1-c1ccc(C(=O)O)cc1` [Example 26, 4-(6-hydroxy-3-methylnaphthalen-2-yl)benzoic acid], the pIC50 is over 7.00.
`O=C(O)c1ccc(-c2cc3ccc(O)cc3cc2F)c(Cl)c1` [Example 21, 3-chloro-4-(3-fluoro-6-hydroxynaphthalen-2-yl)benzoic acid] had a pIC50 of over 7.30.
In turn, `Oc1ccc2cc(-c3ccc(-c4nnn[nH]4)cc3)ccc2c1` [Example 18, 6-(4-(1H-tetrazol-5-yl)phenyl)naphthalen-2-ol] showed a pIC50 of over 7.00.
Still for that read-out and setting: then `O=C(O)c1ccc(-c2cc3ccc(O)cc3cc2F)cc1` [Example 23, 4-(3-fluoro-6-hydroxynaphthalen-2-yl)benzoic acid], with over 7.30; and `N#Cc1c(-c2ccc(C(=O)O)cc2)ccc2c(F)c(O)ccc12` [Example 27, 4-(1-cyano-5-fluoro-6-hydroxynaphthalen-2-yl)benzoic acid], with over 7.30; and `O=C(O)c1ccc(-c2ccc3c(F)c(O)ccc3c2)c(Cl)c1` [Example 29, 3-chloro-4-(5-fluoro-6-hydroxynaphthalen-2-yl)benzoic acid], with over 7.30.
With `O=C(O)c1ccc(-c2ccc3cc(O)ccc3c2)c(F)c1` [Example 2, 3-fluoro-4-(6-hydroxynaphthalen-2-yl)benzoic acid], the pIC50 is over 7.30.
The compound `O=C(O)c1ccc(-c2ccc3cc(O)ccc3c2F)cc1` [Example 25, 4-(1-fluoro-6-hydroxynaphthalen-2-yl)benzoic acid] showed a pIC50 of over 7.30.
Same read-out and setting: then `O=C(O)c1ccc(-c2ccc3c(F)c(O)ccc3c2)cc1` [Example 30, 4-(5-fluoro-6-hydroxynaphthalen-2-yl)benzoic acid], with over 7.30; and `O=C(O)c1ccc(-c2ccc3cc(O)ccc3c2)c(C(F)(F)F)c1` [Example 20, 4-(6-hydroxynaphthalen-2-yl)-3-(trifluoromethyl)benzoic acid], with over 7.00.
As for `N#Cc1cc(C(=O)O)ccc1-c1ccc2cc(O)ccc2c1` [Example 6, 3-cyano-4-(6-hydroxynaphthalen-2-yl)benzoic acid], the pIC50 was over 7.30.
`O=C(O)c1ccc(-c2ccc3cc(O)ccc3c2Br)cc1` [Example 12, 4-(1-bromo-6-hydroxynaphthalen-2-yl)benzoic acid] showed a pIC50 of over 7.30.
`CN(C)c1cc(C(=O)O)ccc1-c1ccc2cc(O)ccc2c1` [Example 5, 3-(dimethylamino)-4-(6-hydroxynaphthalen-2-yl)benzoic acid]: the pIC50 is over 7.00.
With `O=C(O)c1ccc(-c2ccc3cc(O)ccc3c2Cl)cc1` [Example 17, 4-(1-chloro-6-hydroxynaphthalen-2-yl)benzoic acid], the pIC50 is over 7.30.
On to `COc1c(-c2ccc(C(=O)O)cc2)ccc2cc(O)ccc12` [Example 24, 4-(6-hydroxy-1-methoxynaphthalen-2-yl)benzoic acid], for which the pIC50 is over 7.00.
The compound `O=C(O)c1ccc(-c2cc3ccc(O)cc3cc2Cl)cc1` [Example 22, 4-(3-chloro-6-hydroxynaphthalen-2-yl)benzoic acid] had a pIC50 of over 7.30.
For the compound `Cc1cc(C(=O)O)ccc1-c1ccc2c(F)c(O)ccc2c1` [Example 32, 4-(5-fluoro-6-hydroxynaphthalen-2-yl)-3-methylbenzoic acid], the pIC50 is over 7.30.
`N#Cc1c(-c2ccc(C(=O)O)cc2)ccc2cc(O)ccc12` [Example 15, 4-(1-cyano-6-hydroxynaphthalen-2-yl)benzoic acid]: the negative-log IC50 (pIC50) is over 7.30.
Turning to `O=C(O)c1ccc(-c2ccc3c(F)c(O)ccc3c2)c(F)c1` [Example 31, 3-fluoro-4-(5-fluoro-6-hydroxynaphthalen-2-yl)benzoic acid], the pIC50 was over 7.30.
On the same count and under the same terms, then `N#Cc1c(-c2ccc(C(=O)O)cc2F)ccc2cc(O)ccc12` [Example 28, 4-(1-cyano-6-hydroxynaphthalen-2-yl)-3-fluorobenzoic acid], with over 7.30; and `O=C(O)c1ccc(-c2ccc3cc(O)ccc3c2)cc1` [Example 33, 4-(6-hydroxynaphthalen-2-yl)benzoic acid], with over 7.00.

The test system of a further data set is dextran sodium sulfate (DSS)-induced IBD. In words: Acute prophylactic model of DSS-induced IBD. It counts as in vivo, mouse. The settings on record: acute DSS-induced IBD. An excerpt: Acute and chronic models of dextran sodium sulfate (DSS)-induced IBD in mice were used to explore efficacy of GSNORi against this disease. Acute and chronic DSS-induced IBD are widely used and well characterized models that induce pathological changes in the colon similar to those observed in the human disease. In these models and in human disease, epithelial cells within the crypts of the colon are disrupted, leading to dysfunction of the epithelial barrier and the ensuing tissue inflammation, edema, and ulceration. GSNORi therapy may benefit IBD by restoring s-nitrosoglutathione (GSNO) levels, and thus prevent or reverse the epithelial barrier dysfunction. Experimental IBD was induced by administration of DSS in the drinking water of male C57B1/6 mice (N=8 to 10 mice per group) for 6 consecutive days. GSNORi was dosed orally at doses of 0.1 to 10 mg/kg/day for 10 days starting two days prior to and continuing two days post DSS exposure. Two days post DSS exposure, the effect of GSNORi was assessed in a blinded fashion via endoscopy and histopathology using a five point scale ranging from a score=0 (normal tissue) through a score=4 (ulcerative tissue damage and marked pathological changes). Levels of circulating cytokines involved in inflammatory pathways were also assessed. The effect of GSNORi was compared to vehicle treated controls. The corticosteroid, prednisolone, was used as the positive control in this study and was administered daily at 3 mg/kg/day via oral dosing. Naïve mice (N=5) were also assessed as a normal tissue control.
As to `O=C(O)c1ccc(-c2ccc3cc(O)ccc3c2)c(F)c1` [Example 2, 3-fluoro-4-(6-hydroxynaphthalen-2-yl)benzoic acid], the “colon injury (in words)” value was “attenuated colon injury”.

The data set is the same for the next values; noted with them: acute model; oral 10 mg/kg/day for 10 consecutive days, prophylactic dosing regimen.
Consider `O=C(O)c1ccc(-c2ccc3cc(O)ccc3c2)c(F)c1` [Example 2, 3-fluoro-4-(6-hydroxynaphthalen-2-yl)benzoic acid], for which the “decrease of percent of mice presenting with severe colon injury scores via histopathology, of vehicle control” value is reported as 26%.

The same data set, now with this note: acute model; oral 10 mg/kg/day for 10 days; p<0.05.
`O=C(O)c1ccc(-c2ccc3cc(O)ccc3c2)c(F)c1` [Example 2, 3-fluoro-4-(6-hydroxynaphthalen-2-yl)benzoic acid]: the “decrease of percent of mice presenting with severe endoscopy scores, of vehicle control” value stood at 58%.

Tested on in the next data set: not listed separately
The data set can be described thus: Mouse pharmacokinetic (PK) study. Format: in vivo. The settings on record: plasma, male BALB/c mice, PO 10 mg/kg, IV 2 mg/kg. The text has this: The mouse was used to determine the pharmacokinetics of compounds of the invention. This species is widely used to assess the bioavailability of compounds by administering both oral (PO) and intravenous (IV) test articles. Efficacy of the compounds of the invention was compared by assessing plasma exposure in male BALB/c mice either via IV or PO administration at the times of peak activity.
Compounds of the invention were reconstituted in a phosphate buffered saline (PBS)/10% Solutol (HS 15) clear solution resulting in a concentration of 0.2 mg/mL and administered to mice (2 mg/kg) as a single IV dose. Animals were dosed via the lateral tail vein. […] The plasma was transferred into labeled polypropylene tubes and frozen at −70° C. until analyzed by LC/MS/MS.
The compounds of the invention were reconstituted in 40% Propylene Glycol/40% Propylene Carbonate/20% of a 5% Sucrose clear solution resulting in a concentration of 2 mg/mL and administered to mice (10 mg/kg) as a single oral dose via gavage. […] The plasma was transferred into labeled polypropylene tubes and frozen at −70° C. until analyzed by LC/MS/MS.
Plasma samples at each timepoint were analyzed using a LC-MS/MS with a lower limit of quantification (LLOQ) of 1 ng/mL. […]
In addition to the above PK parameters, bioavailability (% F) was calculated.
As for `O=C(O)c1ccc(-c2ccc3cc(O)ccc3c2)c(F)c1` [Example 2, 3-fluoro-4-(6-hydroxynaphthalen-2-yl)benzoic acid], the bioavailability was over 40%.
